Measurements published in patent US20120065228A1, “COMPOSITIONS AND METHODS FOR TREATING, CONTROLLING, REDUCING, OR AMELIORATING OCULAR INFLAMMATORY WITH LOWER RISK OF INCREASED INTRAOCULAR PRESSURE” (priority 2007, published 2012).
Where “and” joins values, the source holds several entries; their conditions need not be identical. Equal entries are not always repeated.

How the values were obtained:
Format in all cases: in vivo
[1] = test system: intraocular pressure (IOP) in New Zealand White rabbits; assay: Intraocular pressure in New Zealand White rabbits, topical dosing four times daily
Experimental: On Days 1-31, animals received daily topical doses of the appropriate test article into the right eye. Animals were dosed four times per day, with doses administered 2 hours apart. Doses were administered using a calibrated 50-μL pipette. The eyelids were held close for 10 seconds immediately following dosing. The time of each dose administration was recorded.
Intraocular pressure (“IOP”) was determined for both eyes of each animal on Days 3, 5, 10, 12, 16, 18, 22, 24, 26, 30, and 32. LOP was evaluated with a Medtronic Solan, Model 30 classic pneumatonometer. Proparacaine hydrochloride 0.5% (1 drop) was delivered to each eye prior to IOP measurement. IOP was measured on Monday, Wednesday, and Friday of each week. A two-point diurnal curve was established: IOP was recorded at 8 a.m. and 12 p.m. on Day 3, and at 8 a.m. and 2 p.m. on later days, with a ±1 hour range for each of these times. The time of the measurements was recorded.
Descriptive statistics were prepared for IOP data of each treatment group (left and right eyes separately) at each measurement interval. The statistics included the number of observations (“N”), mean, standard deviation (“STD”), and standard error (“SEM”). Statistical analyses were conducted on IOP results using Statistical Analysis Systems (SAS Institute, Inc., Cary, N.C., V8.0). Parameters were evaluated using analysis of variance/GLM Procedure followed by Tukey's Standardized Range Test (Tukey, 1985) for post hoc comparisons of group means. The level of significance was set at a probability of p<0.05 for all statistical procedures. Group IOP means were compared at each interval, with left and right eyes compared separately.
IOP data for the following six animals were excluded from group statistics: Group A, Nos. 3081, 3037, 3068, and 3011; Group C, No. 3034; and Group E, No. 3084.

rabbit eye = assay: Pupillary diameter measurement, rabbit paracentesis model; details: 0.1% topical formulation, individual eyes, listed as Dex
Experimental: (§1) Each rabbit was placed in a restraint device and tagged with the alphanumeric code. The formulations were instilled (50 μl) into the conjunctival sac of both eyes 180, 120, 90 and 30 min before the first paracentesis; then 15, 30, 90 min after the first paracentesis. To perform the first paracentesis the animals were anaesthetized by intravenous injection of 5 mg/kg Zoletil® (Virbac; 2.5 mg/kg tiletamine HCl and 2.5 mg/kg zolazepam HCl) and one drop of local anesthetic (Novesina®, Novartis) was administered to the eye. Anterior chamber paracentesis was performed with a 26 G needle attached to a tuberculin syringe; the needle was introduced into the anterior chamber through the cornea, taking care not to damage the tissues. Two hours after the ® first paracentesis, the animals were sacrificed with 0.4 ml Tanax® (Intervet International B.V.) and the second paracentesis was performed. About 100 μl of aqueous humor were removed at the second paracentesis. Aqueous humor was immediately split in four aliquots and stored at −80° C. until analysis. Then both eyes were enucleated and the iris-ciliary body was carefully excised, placed in polypropylene tubes, and stored at −80° C. until analysis.
The pupillary diameter of both eyes was measured with a Castroviejo caliper 180 min and 5 min before the first paracentesis and 5 min before the second paracentesis.
(§2) Pupillary diameter, PGE2, protein, PMN, and MPO were expressed as mean±SEM. Statistical analysis was performed using one way ANOVA followed by a Newman-Keuls post hoc test. Clinical score was expressed as % of eyes and the statistical analysis was performed using Kruskal-Wallis followed by a Dunn post hoc test. P<0.05 was considered statistically significant in both cases. Prism 4 software (GraphPad Software, Inc.) was used for the analysis and graphs.

[2] = test system: protein concentration in the aqueous humor; assay: Protein measurement in aqueous humor, rabbit paracentesis model; details: 0.1% topical formulation, second paracentesis
Experimental: as §1
For protein concentration determination in the aqueous humor we used the Protein Quantification Kit (Fluka; Cat. No. 77371; Lot. No. 1303129). Five microliters of aqueous humor were diluted to 100 μl with water. Twenty microliters of samples and of standards were load into a 96-well plate and recorded in a plate layout. Samples were treated following the assay procedure described in the kit. A microplate reader (GDV, Italy; model DV 990 B/V6) set at 670 nm was used for making the calibration and analyzing the samples.
as §2

In the case of `C[C@@H]1C[C@H]2[C@@H]3CCC4=CC(=O)C=C[C@]4(C)[C@@]3(F)[C@@H](O)C[C@]2(C)[C@@]1(O)C(=O)CO` [dexamethasone, reference compound], the “Mean IOP versus corresponding eyes of other groups” value ([1]; 0.1% dexamethasone suspension, on several days, p<0.05) is reported as “significantly higher”, the “Mean IOP after treatment began” value ([1]; rabbits, right eye four times daily up to 31 days, dexamethasone 0.1%, BOL-303242-X 1, 5, 10 mg/g, left and right eyes) is reported as “increased sharply” and the “Pupillary diameter T2: −5 min” value (rabbit eye; 5 min before the first paracentesis) is reported as 5.5 mm and 6.5 mm (3×) and 6.0 mm (2×) and 7.0 mm and 7.5 mm. For the same compound, the “Pupillary diameter T3: +115 min” value (rabbit eye; 5 min before the second paracentesis) was 5.5 mm (3×) and 6.0 mm (2×) and 4.5 mm and 5.0 mm and 6.5 mm, the “Pupillary diameter Δ(T3 − T1)” value (rabbit eye; +115 min minus −180 min) was −0.5 mm (3×) and −1.5 mm (2×) and 0.5 mm and 0.0 mm and −2.0 mm and the “Pupillary diameter T1: −180 min” value (rabbit eye; basal) was 6.0 mm and 7.0 mm (2×) and 5.5 mm (2×) and 6.5 mm (3×). The “Protein in aqueous humor, Mean” value [2] was 33.457 mg/mL and the “Protein in aqueous humor” value ([2]; individual eyes, listed as Dex) was 31.31 mg/mL and 31.81 mg/mL and 35.95 mg/mL and 37.15 mg/mL and 32.12 mg/mL and 32.40 mg/mL.
